# Experiments:
# [1] = Rhenium molecular probe-lipid overlay (dot blot); type: binding; settings: FIG. 7
# Experimental: (§1) The experimental protocol probe-lipid overlay was as follows: 50 μM of each lipids was loaded on to PVDF membranes (Perkin Elmer, USA), which were then incubated with molecular probes. PhenCyano and PhenPyridyl were assessed against eleven lipids including; sphingomyelin (Cat # S0756, Sigma Aldrich, USA), sphingosine (Cat # S7049; Sigma Aldrich, USA), L-phosphatidylethanolamine (Cat # P7943, Sigma Aldrich, USA), monosialodanglioside (GM1; Cat # G7641, Sigma Aldrich, USA), oleoly-L-?-lysophosphatidic acid (Cat # L7260, Sigma Aldrich, USA), palmitic acid (Cat # P5917, Sigma Aldrich, USA), sphingomyelin (Cat # S0756, Sigma Aldrich, USA), sphingosine (Cat # S7049; Sigma Aldrich, USA), L-?-phosphatidylethanolamine (Cat # P7943, Sigma Aldrich, USA), monosialodanglioside (GM1; Cat # G7641, Sigma Aldrich, USA), progesterone (Cat #102722, MP Biomedical, USA), ceramide (Cat # C2137; Sigma Aldrich, USA), triacylglycerol mix C2-C10 (Cat #17810, Sigma Aldrich, USA) and cholesteryl acetate (Cat #151114; Sigma Aldrich, USA).
# (§2) Lipids were dissolved in ethanol, methanol or isopropanol for loading depending on solubility. Following lipid loading, membranes were left to dry for 20-30 minutes, then they were washed for 10 minutes in cold 10% ethanol, before they were incubated with 10 μM solution of each Rhenium molecular probe in cold 10% ethanol for one hour. Membranes were than washed four times for 10 minutes in cold 10% ethanol prior to imaging. Imaging was performed on an Image Quant Las 4000 (GE, Sweden) luminescent image analyser, with the Rhenium molecular probe being detected by excitation at 460 nm using an epi-blue light source, and detected using an 575 nm ethidium bromide filter.
# [2] = Rhenium molecular probe-lipid overlay (dot blot); type: binding; design: key to interaction with PE (dot blot): ✓ indicates a positive interaction; x indicates no interaction
# Experimental: as §1
# (§3) All other molecular probes were assessed against a panel of six lipids including; sphingomyelin (Cat # S0756, Sigma Aldrich, USA), sphingosine (Cat # S7049; Sigma Aldrich, USA), L-?-phosphatidylethanolamine (Cat # P7943, Sigma Aldrich, USA), monosialodanglioside (GM1; Cat # G7641, Sigma Aldrich, USA), sphingomyelin (Cat # S0756, Sigma Aldrich, USA), sphingosine (Cat # S7049; Sigma Aldrich, USA), L-?-phosphatidylethanolamine (Cat # P7943, Sigma Aldrich, USA), monosialodanglioside (GM1; Cat # G7641, Sigma Aldrich, USA) and triacylglycerol mix C2-C10 (Cat #17810, Sigma Aldrich, USA).
# as §2
# [3] = Rhenium molecular probe-lipid overlay (dot blot); type: binding; settings: FIG. 7 / FIG. 8
# Experimental: as §1, §3, §2
# [4] = tested on: 3T3 L1 cells; assay: Live cell staining with rhenium molecular probes; type: cell-based; settings: live samples, 10-20 μM probe
# Experimental: (§4) Probes were dissolved in DMSO to obtain a stock solution with a concentration of 10 mM. Stock solutions were stored at room temperature in a dark place. Working solutions were prepared only at the time of use as the probe has reduced solubility in aqueous solutions. A Working solution was a dilution 1/1000 to 1/500 of the stock in DMSO to PBS or cell medium, and as such the percentage of DMSO used in actual cell experiments was less than 1%.
# (§5) For tissues, the tissues were isolated in PBS (or other physiological media) and mounted on a coverslip. For cells, these were grown as per normal practice on coverslips.
# (§6) The media was removed media and replaced with 10-20 μM solution of molecular probes in PBS (or appropriate physiological media/cell media) at a dilution of stock solution from 1/1000-1/500, for 15-30 minutes at physiologically appropriate temperature (37° C. for cell culture or 25° C. for insect larvae). […] If foetal calf serum is necessary for cell health, an increased incubation time may be necessary to obtain adequate staining.
# The samples were washed for one minute in PBS. […]
# Micrographs of 3T3 L1, 453 cells and CHOK1 cells and Drosophila fat body tissue stained with rhenium molecular probes, PhenCyan top, PhenPyridyl bottom are shown in FIG. 10. […] Left: confocal images; Right: fluorescence microscopy images.
# [5] = Rhenium molecular probe-lipid overlay (dot blot); type: binding; design: key to interaction with GM1 (dot blot): ✓ indicates a positive interaction; x indicates no interaction
# Experimental: as §1, §3, §2
# [6] = Rhenium molecular probe-lipid overlay (dot blot); type: binding; settings: FIG. 7
# Experimental: as §1, §2
# [7] = tested on: Drosophila fat body cells; assay: Live tissue staining with rhenium molecular probes (Examples 10, 13); type: cell-based; settings: live samples, 10-20 μM probe
# Experimental: as §4, §5, §6
# The samples were washed for one minute in PBS. If co-staining was performed, the samples were washed in PBS for 30 seconds, before incubating with counterstain.
# Tissues were mounted in optical coupling gel, such as carbomer-940 (Snowdrift farm, Tucson, USA) based gel to prevent dehydration prior to imaging and maintain tissue integrate (Rothstein, E. C., Nauman, M., Chesnick S., Balaban R. S., 2006, Multi-photon excitation microscopy in intact animals Journal of Microscopy 222, 58, 64). For cells, the coverslip was mounted in PBS for immediate imaging.
# Samples were imaged immediately following staining.
# Rhenium molecular probes were? excited at 800-830 nm using a two-photon pulse laser or 405 steady state laser and detection in the range of 490-670 nm, with an emission maxima at around 570.
# Micrographs of 3T3 L1, 453 cells and CHOK1 cells and Drosophila fat body tissue stained with rhenium molecular probes, PhenCyan top, PhenPyridyl bottom are shown in FIG. 10. […] Left: confocal images; Right: fluorescence microscopy images. […]
# [8] = Rhenium molecular probe-lipid overlay (dot blot); type: binding; design: key to interaction with Cholestryl acetate (dot blot): ✓ indicates a positive interaction; x indicates no interaction
# Experimental: as §1, §2
# [9] = Rhenium molecular probe-lipid overlay (dot blot); type: binding; settings: FIG. 7 / FIG. 8
# Experimental: as §1, §3, §2
# [10] = Rhenium molecular probe-lipid overlay (dot blot); type: binding; design: key to interaction with Lysophosphatidic acid (dot blot): ✓ indicates a positive interaction; x indicates no interaction
# Experimental: as §1, §2
# [11] = Rhenium molecular probe-lipid overlay (dot blot); type: binding; design: key to interaction with Sphingomyline (dot blot): ✓ indicates a positive interaction; x indicates no interaction
# Experimental: as §1, §3, §2
# [12] = Rhenium molecular probe-lipid overlay (dot blot); type: binding; settings: FIG. 7
# Experimental: as §1
# Lipids were dissolved in ethanol, methanol or isopropanol for loading depending on solubility. […] Imaging was performed on an Image Quant Las 4000 (GE, Sweden) luminescent image analyser, with the Rhenium molecular probe being detected by excitation at 460 nm using an epi-blue light source, and detected using an 575 nm ethidium bromide filter.
# [13] = Rhenium molecular probe-lipid overlay (dot blot); type: binding; settings: FIG. 7 / FIG. 8
# Experimental: as §1, §3, §2
# [14] = 10 μM probe, 50 μM lipid on PVDF membrane
compound,measurement,setting,value
"O=[C]=[Re](=[C]=O)(=[C]=O)[n]1nnc(-c2cccnc2)n1.c1cnc2c(c1)ccc1cccnc12 [PhenPyridyl, Triscarbonyl phenanthroline (3-pyridyltetrazolato)Rhenium(I)]","interaction with ceramide, in words",[1],no interaction detected
same,interaction with PE (dot blot),[2]; [14],✓
same,"affinity towards phosphatidylethanolamine (PE), in words",[2]; FIG. 7 / FIG. 8,some affinity
same,"affinity towards cholesterol, in words",[3],some affinity
same,staining pattern in 3T3 L1 cells,[4],limited to no lipid droplet staining
same,interaction with GM1 (dot blot),[5]; [14],✓
same,"affinity towards monosialotetrahexosylganglioside (GM1), in words",[5]; FIG. 7 / FIG. 8,some affinity
same,"affinity towards progesterone, in words",[6],some affinity
same,staining pattern in Drosophila fat body cells,[7],limited to no lipid droplet staining
same,interaction with Cholestryl acetate (dot blot),[8]; [14],x
same,"interaction with cholesterol ester (cholesteryl acetate), in words",[8]; FIG. 7,no interaction detected
same,"affinity towards sphingosine, in words",[9],some affinity
same,interaction with Lysophosphatidic acid (dot blot),[10]; [14],✓
same,"affinity towards lysophosphatidic acid, in words",[10]; FIG. 7,some affinity
same,interaction with Sphingomyline (dot blot),[11]; [14],✓
same,"affinity towards sphingomyelin, in words",[11]; FIG. 7 / FIG. 8,some affinity
same,"interaction with fatty acid (palmitic acid), in words",[12],no interaction detected
same,"interaction with triglycerides, in words",[13],no interaction detected
